Experimental data from patent publication US10501460B2, “Heterocyclic compounds and uses thereof” (Plexxikon Inc., priority 2013, dated 2019).

Key:
MV-4-11 = test: Oncology cell growth assay MV-4-11 (CellTiter Glo, 72 hours); format: cell-based; settings: Homo sapiens, MV4-11, 72 h; MV-4-11 cell growth inhibitory activity, 3d
Source text: (§1) Published bromodomain inhibitors JQ1 and iBET 151 have shown activity in variety of cancer cells such leukemia and lymphoma, multiple myeloma cells, NUT midline carcinoma and glioblastoma cells (Dawson M A et al. 2011; Delmore J E 2011; Chen Z et al. 2013; Filippakopoulos P et al. 2010; Mertz J A et al. 2011; Ott C J et al. 2012). In this study, we test compounds in different cancer cell lines. MV-4-11 and MOLM-13 are AML cell lines harboring a MLL-AF4 and MLL-AF9 translocation, respectively. MM.1S is a multiple myeloma cell line. SK-N-AS, IMR-32 and SK-N-BE(2) are neuroblastoma cell lines. IMR-32 and SK-N-BE(2) cell lines harbor MYCN amplifications. MV-4-11, MM.1S, IMR-32, SK-N-AS and SK-N-BE(2) were obtained from ATCC (IL, USA) and MOLM-13 were purchased from DSMZ (Braunschweig, German). Cells are cultured as recommended by their sources. For growth inhibition studies 3000 cells are seeded in wells of a 96-well plate in 75 μL of culture media. After several hours, growth media containing compounds of formula (I) are added to the wells. Compound at a maximal concentration of 5 mM was serially diluted 1:3 for a total of 8 point titration with DMSO as a control. A 1 μL aliquot of each dilution point is added to 249 μL growth media and 75 μL is added to each well containing cells, providing 10 μM compound at the maximum concentration point. The final concentration of DMSO in all wells is 0.2%. Cells are incubated for 72 hours, and 25 μL of CellTiter Glo Reagent (Promega Ga., USA) is added to each well. Plates are shaken for approximately 10 minutes and chemiluminescent signal is read on Tecan microplate reader. The measured luminescence correlates directly with cell number.
(§2) All data is normalized to the mean of eight DMSO high control wells on each plate. A four parameter curve fit of the following formula was then applied: Y=a+(b−a)/(1+(x/c)^d) Where ‘a’ is the minimum, ‘b’ is the maximum, ‘c’ is the pIC50 and ‘d’ is the Hill slope. […] Myc Reporter Assay
The following table provides data indicating the BRD4 biochemical inhibitory activity and MV-4-11 cell growth inhibitory activity for exemplary compounds as described herein.

bromodomain = test: Bromodomain cell assays of Example 40 (at least one of them); format: cell-based; settings: in at least one of the bromodomain cell assays described in Example 40
Source text: as §1, §2
In MV-4-11 cells, BRD2, BRD3 and BRD4 bind to the promoter region of MYC and regulate its transcription (Dawson M A et al. 2011). The literature bromodomain inhibitor iBET 151 could disrupt BRD4 recruitment to the MYC promoter and subsequently downregulate c-myc transcription (Dawson M A et al. 2011). Myc protein is a transcription factor that heterodimerizes with an obligatory partner Max and regulates the transcription of genes important for cell proliferation, differentiation, and apoptosis. This Myc reporter assay is used to monitor the inhibitory effect of compound of formula (I) on Myc dependent gene expression. Effective compounds could have potential therapeutic effects in Myc-driven tumors.
The MV-4-11 Myc reporter cell line is established by infecting MV-4-11 with VSV-g pseudotyped lentivirus expressing the firefly luciferase gene under the control of a minimal (m) CMV promoter and tandem repeats of the E-box transcriptional response element (TRE) (Qiagen IL, USA) and selecting cells in […] Puromycin.
The MV-4-11 Myc reporter cell line is maintained in Iscove's Modified Dulbecco's Medium containing 10% FBS, 1% PenStep and 2.5 μg/ml Puromycin. Cells are incubated at 37° C. in a humidified atmosphere with 5% CO2. 25,000 cells are seeded in 96-well plate in 50 μL of culture media. After several hours, growth media containing 2× compounds are added to the wells. Compound at a maximal concentration of 5 mM is serially diluted 1:3 for a total of 8 point titration. A 1 μl aliquot of each dilution point is added to 249 μl growth media and 50 μl is added to each well containing cells, providing 10 μM compound at the maximum concentration point. DMSO treated cells serve as a high control and 10 μM JQ1 treated cells serve as a low control. Cells are incubated for a further 24 hours and 25 μL of CellTiter-Fluo Reagent (Promega Ga., USA) is added to each well. Plates are shaken for approximately 2 minutes and incubated at 37° C. for 0.5 hour. […]

| IC50 (MV-4-11) [µM] | IC50 (bromodomain) [µM] | Structure (SMILES) |
| --- | --- | --- |
| ≤ 1 | < 10 | COCCn1cc(-c2cn(C(C)c3ccccc3)c3cc(-c4c(C)noc4C)cnc23)cn1 (stereo not drawn) [P-0203, 4-[3-[1-(2-methoxyethyl)pyrazol-4-yl]-1-(1-phenylethyl)pyrrolo[3,2-b]pyridin-6-yl]-3,5-dimethyl-isoxazole] |
| ≤ 1 | < 10 | Cc1noc(C)c1-c1cnc2c(-c3cnn(C4CCOC4)c3)cn(S(=O)(=O)C3CCCC3)c2c1 (stereo not drawn) [P-0153, 4-[1-cyclopentylsulfonyl-3-(1-tetrahydrofuran-3-ylpyrazol-4-yl)pyrrolo [3,2-b]pyridin-6-yl]-3,5-dimethyl-isoxazole] |
| ≤ 1 | < 10 | Cc1noc(C)c1-c1cnc2c(-c3cnn(C)c3)cn(C(C(=O)NC3CC3)c3ccccc3)c2c1 (stereo not drawn) [P-0207, N-cyclopropyl-2-[6-(3,5-dimethylisoxazol-4-yl)-3-(1-methylpyrazol-4-yl)pyrrolo[3,2-b]pyridin-1-yl]-2-phenyl-acetamide] |
| ≤ 1 | < 10 | C=CCn1cc(-c2cn(S(=O)(=O)CCC)c3cc(-c4c(C)noc4C)cnc23)cn1 [P-0137, 4-[3-(1-allylpyrazol-4-yl)-1-propylsulfonyl-pyrrolo[3,2-b]pyridin-6-yl]-3,5-dimethyl-isoxazole] |
| ≤ 1 | < 10 | C=CCn1cc(-c2cn(S(=O)(=O)C(C)CC)c3cc(-c4c(C)noc4C)cnc23)cn1 (stereo not drawn) [P-0138, 4-[3-(1-allylpyrazol-4-yl)-1-sec-butylsulfonyl-pyrrolo[3,2-b]pyridin-6-yl]-3,5-dimethyl-isoxazole] |
| ≤ 1 | < 10 | [2H]C([2H])(C1CC(F)(F)C1)n1cc(-c2cnn(C)c2)c2ncc(-c3c(C)noc3C)cc21 [P-0214, 4-[1-[dideuterio-(3,3-difluorocyclobutyl)methyl]-3-(1-methylpyrazol-4-yl)pyrrolo[3,2-b]pyridin-6-yl]-3,5-dimethyl-isoxazole] |
| ≤ 1 | < 10 | C=CCn1cc(-c2cn(Cc3ccccc3)c3cc(-c4c(C)noc4C)cnc23)cn1 [P-0160, 4-[3-(1-allylpyrazol-4-yl)-1-benzyl-pyrrolo[3,2-b]pyridin-6-yl]-3,5-dimethyl-isoxazole] |
| ≤ 1 | < 10 | Cc1noc(C)c1-c1cnc2ccn(C(CC#N)C3CCCC3)c2c1 (stereo not drawn) [P-0196, 3-cyclopentyl-3-[6-(3,5-dimethylisoxazol-4-yl)pyrrolo[3,2-b]pyridin-1-yl]propanenitrile] |
| ≤ 1 | < 10 | Cc1noc(C)c1-c1cnc2c(-c3cnn(C)c3)cn(Cc3cscn3)c2c1 [P-0171, 3,5-dimethyl-4-[3-(1-methylpyrazol-4-yl)-1-(thiazol-4-ylmethyl)pyrrolo[3,2-b]pyridin-6-yl]isoxazole] |
| ≤ 1 | < 10 | Cc1nc(Cn2cc(-c3cnn(C)c3)c3ncc(-c4c(C)noc4C)cc32)cs1 [P-0170, 3,5-dimethyl-4-[3-(1-methylpyrazol-4-yl)-1-[(2-methylthiazol-4-yl)methyl]pyrrolo[3,2-b]pyridin-6-yl]isoxazole] |
| ≤ 1 | < 10 | Cc1noc(C)c1-c1cnc2c(-c3cn[nH]c3)cn(S(=O)(=O)C3CCCC3)c2c1 [P-0167, 4-[1-cyclopentylsulfonyl-3-(1H-pyrazol-4-yl)pyrrolo[3,2-b]pyridin-6-yl]-3,5-dimethyl-isoxazole] |
| ≤ 1 | < 10 | Cc1noc(C)c1-c1cnc2c(-c3cnn(C)c3)cn(C(CO)c3ccccc3)c2c1 (stereo not drawn) [P-0192, 2-[6-(3,5-dimethylisoxazol-4-yl)-3-(1-methylpyrazol-4-yl)pyrrolo[3,2-b]pyridin-1-yl]-2-phenyl-ethanol] |
| ≤ 1 | < 10 | Cc1noc(C)c1-c1cnc2c(-c3cnn(C)c3)cn(Cc3cccnc3)c2c1 [P-0195, 3,5-dimethyl-4-[3-(1-methylpyrazol-4-yl)-1-(3-pyridylmethyl)pyrrolo[3,2-b]pyridin-6-yl]isoxazole] |
| ≤ 1 | < 10 | Cc1noc(C)c1-c1cnc2c(-c3cnn(C)c3)cn(Cc3ccccc3OC(F)(F)F)c2c1 [P-0194, 3,5-dimethyl-4-[3-(1-methylpyrazol-4-yl)-1-[[2-(trifluoromethoxy)phenyl]methyl]pyrrolo[3,2-b]pyridin-6-yl]isoxazole] |

The next lines start with the compound.

| Structure (SMILES) | IC50 (MV-4-11) [µM] | IC50 (bromodomain) [µM] |
| --- | --- | --- |
| CCc1[nH]c2ncc(-c3c(C)noc3C)cc2c1C(O)C1CCC(F)(F)CC1 (stereo not drawn) [P-0044, (4,4-difluorocyclohexyl)-[5-(3,5-dimethylisoxazol-4-yl)-2-ethyl-1H-pyrrolo[2,3-b]pyridin-3-yl]methanol] | ≤ 1 | < 10 |
| Cc1noc(C)c1-c1cnc2[nH]c(C)c(C(O)c3cccnc3)c2c1 (stereo not drawn) [P-0009, [5-(3,5-dimethylisoxazol-4-yl)-2-methyl-1H-pyrrolo[2,3-b]pyridin-3-yl]-(3-pyridyl)methanol] | ≤ 1 | < 10 |
| Cc1noc(C)c1-c1cnc2c(-c3cnn(C(F)F)c3)cn(S(=O)(=O)CCC(F)(F)F)c2c1 [P-0136, 4-[3-[1-(difluoromethyl)pyrazol-4-yl]-1-(3,3,3-trifluoropropylsulfonyl)pyrrolo[3,2-b]pyridin-6-yl]-3,5-dimethyl-isoxazole] | 1 to 10 | < 10 |
| Cc1noc(C)c1-c1cnc2c(-c3ccccc3)cn(S(=O)(=O)c3ccccc3)c2c1 [P-0077, 4-[1-(benzenesulfonyl)-3-phenyl-pyrrolo[3,2-b]pyridin-6-yl]-3,5-dimethyl-isoxazole] | 1 to 10 | < 10 |
| Cc1noc(C)c1-c1cnc2ccn(S(=O)(=O)c3ccccc3)c2c1 [P-0038, 4-[1-(benzenesulfonyl)pyrrolo [3,2-b]pyridin-6-yl]-3,5-dimethyl-isoxazole] | ≤ 1 | < 10 |
| Cc1noc(C)c1-c1cnc2c(c1)c(CC1CCN(C(=O)C(F)(F)F)CC1)cn2C [P-0106, 1-[4-[[5-(3,5-dimethylisoxazol-4-yl)-1-methyl-pyrrolo[2,3-b]pyridin-3-yl]methyl]-1-piperidyl]-2,2,2-trifluoro-ethanone] | ≤ 1 | < 10 |
| COc1ncc(F)cc1Cc1c[nH]c2ncc(-c3c(C)noc3C)cc12 [P-0028, 4-[3-[(5-fluoro-2-methoxy-3-pyridyl)methyl]-1H-pyrrolo[2,3-b]pyridin-5-yl]-3,5-dimethyl-isoxazole] | ≤ 1 | < 10 |
| CCn1cc(-c2cn(S(=O)(=O)c3ccccc3F)c3cc(-c4c(C)noc4C)cnc23)cn1 [P-0125, 4-[3-(1-ethylpyrazol-4-yl)-1-(2-fluorophenyl)sulfonyl-pyrrolo[3,2-b]pyridin-6-yl]-3,5-dimethyl-isoxazole] | ≤ 1 | < 10 |
| COc1ncc(-c2cn(S(=O)(=O)c3ccccc3)c3cc(-c4c(C)noc4C)cnc23)cn1 [P-0104, 4-[1-(benzenesulfonyl)-3-(2-methoxypyrimidin-5-yl)pyrrolo[3,2-b]pyridin-6-yl]-3,5-dimethyl-isoxazole] | 1 to 10 | < 10 |
| COc1ncc(F)cc1C(O)c1c[nH]c2ncc(-c3c(C)noc3C)cc12 (stereo not drawn) [P-0022, [5-(3,5-dimethylisoxazol-4-yl)-1H-pyrrolo[2,3-b]pyridin-3-yl]-(5-fluoro-2-methoxy-3-pyridyl)methanol] | ≤ 1 | < 10 |
